Structures are written as SMILES. “Also recorded” adds a separate entry of the source. Where two headings read alike, the source gives them in different places.

The subject of assay [1] is Walker 256 L-Pam tumor cell. In words: Walker 256 L-Pam tumor cell attachment to virally transformed endothelial cell monolayer (RCE-T1). Format: cell-based, rat. The settings on record: 0.04 mg/ml; for effect on tumor cell adhesion to endothelial cell monolayer (in words): thirty minutes preincubation; for inhibition at 40 µg/mL: Rattus norvegicus, Walker 256, 1 h, 1 h plating, x ± SEM, n = 4, read-out: % Inhibition vs Control (attachment to endothelial cells). On the procedure: Walker ^256 L-Pam tumor cells were plated at approximately 5×10^5 cells/flask. The cells were labelled with ^125 I-UDR (iodinated uridine deoxyribonucleic acid) at 0.5 microcuries/ml media (5.0 microcurie/flask). Cells were incubated for approximately 24 hours and the cell count/flask was determined to be 8.14×10^5 cell/flask. The cells from each flask were counted (gamma counter) and found to have an average of 0.24 cpm/cell.
Platelet enhanced tumor cell attachment to plastic was tested using four conditions: tumor cell alone (Condition A), tumor cells plus washed platelets (Condition B), tumor cells plus platelet poor plasma (Condition C) and tumor cells, washed platelets and platelet poor plasma (Condition D).
Walker 256 L-Pam tumor cells obtained from culture are radiolabeled with ^125 I-UDR as described previously. The radiolabeled cells are removed from T-75 flasks with trypsin (2 milliliters of 0.25% trypsin and 0.01% EDTA) in MEM. After two minutes, the flasks are washed 3X with trypsin "quench," 10% fetal calf serum in MEM, to quench and remove the trypsin in order to prevent cell lysis. The tumor cells are removed from the flasks in MEM and adjusted to 2.5×10^5 cells /milliliter. One hundred microliters of the tumor cell suspension (2.5×10^4 cells) were plated in […] tissue culture wells (Costar) and overlaid with 250 microliters of Wash Solution #2 (see Platelet Prep). The cells were incubated at room temperature (approximately 22° C.) for 5 minutes. Following this incubation 10 microliters of 7.35 mg/ml CaCl2 were added to the culture wells, 10 microliters of platelet poor plasma (diluted 1:32 with platelet Wash Solution #2) were added to culture wells for Conditions C and D and 250 microliters of washed platelets (3×10^8 /ml final concentration) were added to culture wells for Conditions B and D. Where appropriate, Wash Solution #2 was added to wells (Conditions A and C) so that all wells had the same final volume of solutions. The wells were incubated for one hour at 37° C. After the one hour incubation, the media containing any unattached tumor cells were removed by aspiration and then the wells were washed 2X with 1 ml of sodium phosphate buffer (PBS). The adhering cells were removed by trypsinization (as described above) and counts per wells determined using a gamma counter. Results were determined as total cpm plated per well.
Platelet enhanced tumor cell attachment to a virally transformed endothelial cell monolayer (on plastic wells) was also tested. The experimental protocal utilized was similar to that described above. The only significant difference is that in the above assay the floor of each incubation well is the plastic material of the plate, and in these assays, that plastic floor is covered with a confluent monolayer of virally transformed rat cerebral microvascular endothelial cells. The cells were prepared and plated as described in detail in Laboratory Investigations, Vol 46, No. 6, […], 1982 (Diglio, C. A., Grammas, P., Giacomelli, F., and Wiener, J., Lab. Investigations Vol 46, No. 6, p554-563, 1982) and in J. Cell. Biol (Manuscript accepted 3/83) (Diglio, C., Wolfe, D. E., and Meyers, P. J. Cell. Biol. manuscript in press, 1983). Briefly, rat endothelial cells were dispersed from […] microvasculature by collagenase treatment. Migrating cells and cell proliferation are seen. Isolated cells are allowed to proliferate in culture until the expected "cobblestone" appearance characteristic of normal endothelial cells is obtained.
Cultured (subconfluent) normal endothelial cells are infected with Schmidt-Ruppin Rous Sarcoma virus-strain D (SR-RSV-D). A single transformed focus was isolated and recultured. The resulting transformed endothelial cell line was designated RCE-T1 (also known as SR-D1).
In the actual assay, the protocol for tumor cell adhesion to plastic or transformed endothelial cell are similar. […]

In the next assay the test system is B16a Tumor Cells. In words: 3H-thymidine incorporation into DNA of cultured B16a tumor cells. Format: cell-based, mouse. The settings on record: for effect on 3H-thymidine incorporation (in words): B16a tumor cell DNA. The procedure: ^3 H-thymidine incorporation studies were designed to measure the effects of BAY e 9736, nimodipine on the incorporation of ^3 H-thymidine into the DNA of B16a tumor cells. One ml of cultured B16a tumor cells (in MEM+10% fetal calf serum) at 1×10^5 cells/ml are placed into plastic incubation tubes. The cells are incubated for 15 minutes at 37° C. in the presence of five microliters of dilutent (DMSO, dimethyl sulfoxide) alone or dilutent containing BAY e 9736. After 15 minutes, which is considered the preincubation period, the cells are incubated for one hour (at 37° C.) in the presence of one microcurie (per ml) ^3 H-thymidine. The assay is terminated by the addition of one milliliter of cold trichloroacetic acid, TCA, (6% w/v). The cells are centrifuged at 10,000×g ×4 minutes. The supernatant is discarded. The resulting pellet is resuspended in one milliliter of TCA, vortexed and then repelleted by centrifugation at 10,000 ×g ×4 minutes. The supernatant is discarded. The pellets are resuspended in 100 microliters of tissue solubilizing fluid (NCS from Amersham Corporation) and incubated for 2 hours at 50° C. Fifty microliter aliquots of the solubilized pellets are transferred into plastic scintillation vials containing 3 milliliters of scintillation fluid (Econofluor, New England Nuclear), allowed to cool and dark adjust, and counted.
A variation of the previously described experiment was used to determine the effects of BAY e 9736 on a different parameter of tumor cell proliferation, the replication of deoxyribonucleic acid (DNA) as measured by the incorporation of ^3 H-thymidine into tumor cell DNA. B16a tumor cells were grown in T-75 flasks and removed using trypsin, as previously described for Walker 256 L-Pam tumor cells. The B16a cells are quenched, washed, and resuspended in media (MEM+10% fetal calf serum, FCS) to a concentration of 1×10^5 cells/ml. One milliliter of tumor cells are placed into 5 ml plastic incubation tubes, and five microliters of media, dilutant, or dilutant containing 8, 4, or 2 milligram/ml BAY e 9736 are added to appropriate tubes. The assay was run, terminated, and the B16a tumor cell DNA extracted and counted as previously described.
Protocol same as previously described except nifedipine (40 mg) is first dissolved in absolute ethanol (0.5 ml) and then diluted with PEG-400 (1.5 ml) to a final concentration of 20 mg/ml. One microliter of the 20 mg/ml nifedipine solution was added to one ml of B16a tumor cells (for final concentration of 20 micrograms/ml). Nimodipine was dissolved as previously described.
For orientation: Dividing cells build labelled thymidine or BrdU into new DNA.

As for `COCCOC(=O)C1=C(C)NC(C)=C(C(=O)OC(C)C)C1c1cccc([N+](=O)[O-])c1` (stereo not drawn) [BAY e 9736, 1,4-dihydro-2,6-dimethyl-4-(3' nitrophenyl)-pyridine-3-(beta-methyoxyethylester)-5-(isopropyl ester)], the “effect on tumor cell adhesion to endothelial cell monolayer (in words)” value in assay [1] is “decreased the percent of cells adhering to the plastic wells as well as the endothelial cell monolayer; also recorded: significant in all groups tested”; in assay [1] (listed as nimodipine), “decreases or inhibits the adhesion of tumor cells to plastic incubation wells and to virally transformed endothelial cell monolayers”. The inhibition at 40 µg/mL worked out at 50% in assay [1] (A = tumor cells alone), 65 ± 7.8% in assay [1] (B = tumor cells + platelets), 60 ± 5% in assay [1] (C = tumor cells + PPP) and 53 ± 5.5% in assay [1] (D = tumor cells + PPP + platelets). Moreover, the “effect on 3H-thymidine incorporation (in words)” value in the assay with B16a Tumor Cells is reported as “inhibited the incorporation of ^3 H-thymidine into the tumor cell DNA”; with B16a Tumor Cells (listed as nimodipine), “decreases the rate of incorporation of ^3 H-thymidine into tumor cell DNA”. In addition, the activity at 10 µg/mL in the assay on B16a Tumor Cells (Mus musculus, .01 mg/ml, 15 min preincubation, 1 hour incorporation, x ± SEM, n = 4, read-out: % of Control Tumor Cell Incorporation (3H-thymidine)) is 77 ± 2.5%. The activity at 20 µg/mL in the assay on B16a Tumor Cells (Mus musculus, .02 mg/ml, 15 min preincubation, 1 hour incorporation, x ± SEM, n = 4, read-out: % of Control Tumor Cell Incorporation (3H-thymidine)) stood at 56 ± 3.5%. Also, the activity at 40 µg/mL in the assay on B16a Tumor Cells (Mus musculus, .04 mg/ml, 15 min preincubation, 1 hour incorporation, x ± SEM, n = 4, read-out: % of Control Tumor Cell Incorporation (3H-thymidine)) was determined as 38 ± 4%.

What is called inhibition is the relative decrease from the control value, in per cent.

The values above are taken from US4690935A, “Inhibition of tumor growth and metastasis with calcium channel blocker compounds” (Wayne State University, priority 1983, dated 1987).
